In US20240190893A1, “MACROCYCLIC 1,3-BRIDGED 6-CHLORO-7-PYRAZOL-4-YL-1 H-INDOLE-2-CARBOXYLATE AND 6-CHLORO-7-PYRIMIDIN-5-YL-1H-INDOLE-2-CARBOXYLATE DERIVATIVES AS MCL-1 INHIBITORS FOR THE TREATMENT OF CANCER” (JANSSEN PHARMACEUTICA NV, priority 2021, published 2024) one finds Ki and AC50 data, which are given here for 21 compounds.

Test [1] addresses Myeloid Cell Leukemia 1 (Mcl-1) (Homo sapiens (Human), UniProt Q07820). In words: Terbium labeled Mcl-1 HTRF binding assay with Cy5-labeled BIM BH3 peptide. To be noted: Tb-Mcl-1 25 pM, Cy5 Bim peptide 8 nM; Ki=IC50/(1+[L]/Kd), [L]=8 nM, Kd=10 nM. The protocol: Terbium labeled Myeloid Cell Leukemia 1 (Mcl-1) homogeneous time-resolved fluorescence (HTRF) binding assay utilizing the BIM BH3 peptide (H2N—(C/Cy5Mal) WIAQELRRIGDEFN-OH) as the binding partner for Mcl-1.
This assay evaluated inhibition of the BH3 domain: Mcl-1 interaction by measuring the displacement of Cy5-labeled BIM BH3 peptide (H2N—(C/Cy5Mal) WIAQELRRIGDEFN-OH) in the HTRF assay format.
The following assay and stock buffers were prepared for use in the assay: (a) Stock buffer: 10 mM Tris-HCl, pH=7.5+150 mM NaCl, filtered, sterilized, and stored at 4° C.; and (b) 1× assay buffer, where the following ingredients were added fresh to stock buffer: 2 mM dithiothreitol (DTT), 0.0025% Tween-20, 0.1 mg/mL bovine serum albumin (BSA). The 1×Tb-Mcl-1+Cy5 Bim peptide solution was prepared by diluting the protein stock solution using the 1× assay buffer (b) to 25 pM Tb-Mcl-1 and 8 nM Cy5 Bim peptide.
Using the Acoustic ECHO, 100 nL of 100× test compound(s) were dispensed into individual wells of a white 384-well Perkin Elmer Proxiplate, for a final compound concentration of 1× and final DMSO concentration of 1%. Inhibitor control and neutral control (NC, 100 nL of 100% DMSO) were stamped into columns 23 and 24 of assay plate, respectively. Into each well of the plate was then dispensed 10 μL of the 1×Tb-Mcl-1+Cy5 Bim peptide solution. The plate was centrifuged with a cover plate at 1000 rpm for 1 minute, then incubated for 60 minutes at room temperature with plates covered.
The TR-FRET signal was read on an BMG PHERAStar FSX MicroPlate Reader at room temperature using the HTRF optic module (HTRF: excitation: 337 nm, light source: laser, emission A: 665 nm, emission B: 620 nm, integration start: 60 μs, integration time: 400 μs).
The BMG PHERAStar FSX MicroPlate Reader was used to measure fluorescence intensity at two emission wavelengths—665 nm and 620 nm—and report relative fluorescence units (RFU) for both emissions, as well as a ratio of the emissions (665 nm/620 nm)*10,000. The RFU values were normalized to percent inhibition as follows:
% inhibition=(((NC−IC)−(compound−IC))/(NC−IC))*100
where IC (inhibitor control, low signal)=mean signal of 1×Tb-MCl-1+Cy5 Bim peptide+ inhibitor control or 100% inhibition of Mcl-1; NC (neutral control, high signal)=mean signal 1×Tb-MCl-1+Cy5 Bim peptide with DMSO only or 0% inhibition
An 11-point dose response curve was generated to determine IC50 values (using GenData) based on the following equation:
Y=Bottom+(Top−Bottom)/(1+10^((log IC50−X)*HillSlope))
where Y=% inhibition in the presence of X inhibitor concentration; Top=100% inhibition derived from the IC (mean signal of Mcl-1+inhibitor control); Bottom=0% inhibition derived from the NC (mean signal of Mcl-1+DMSO); Hillslope=Hill coefficient; and IC50=concentration of compound with 50% inhibition in relation to top/neutral control (NC).
In this assay [L]=8 nM and Kd=10 nM
Representative compounds of the present invention were tested according to the procedure as described above, with results as listed in the Table below (n.d. means not determined).
On the technique in general: Time-resolved FRET reads energy transfer from a long-lived donor to a nearby acceptor.

The subject of test [2] is MOLP-8 human multiple myeloma cell line. In words: Caspase-Glo 3/7 apoptosis induction assay in MOLP-8 cells. In kind it is cell-based. To be noted: MOLP8 cells, 2 hours at 37° C., averaged over all runs on all batches. The text has this:
MCL-1 is a regulator of apoptosis and is highly over-expressed in tumor cells that escape cell death. The assay evaluates the cellular potency of small-molecule compounds targeting regulators of the apoptosis pathway, primarily MCL-1, Bfl-1, Bcl-2, and other proteins of the Bcl-2 family. Protein-protein inhibitors disrupting the interaction of anti-apoptotic regulators with BH3-domain proteins initiate apoptosis.
The Caspase-Glo® 3/7 Assay is a luminescent assay that measures caspase-3 and -7 activities in purified enzyme preparations or cultures of adherent or suspension cells. The assay provides a proluminescent caspase-3/7 substrate, which contains the tetrapeptide sequence DEVD. This substrate is cleaved to release aminoluciferin, a substrate of luciferase used in the production of light. Addition of the single Caspase-Glo® 3/7 Reagent in an “add-mix-measure” format results in cell lysis, followed by caspase cleavage of the substrate and generation of a “glow-type” luminescent signal.
This assay uses the MOLP-8 human multiple myeloma cell line, which is sensitive to MCL-1 inhibition.
Cell cultures were maintained between 0.2 and 2.0×10^6 cells/mL. The cells were harvested by collection in 50 mL conical tubes. The cells were then pelleted at 500 g for 5 mins before removing supernatant and resuspension in fresh pre-warmed culture medium. The cells were counted and diluted as needed.
The assay reagent was prepared by transferring the buffer solution to the substrate vial and mixing. The solution may be stored for up to 1 week at 4° C. with negligible loss of signal.
Compounds were delivered in assay-ready plates (Proxiplate) and stored at −20° C.
Assays always include 1 reference compound plate containing reference compounds. The plates were spotted with 40 nL of compounds (0.5% DMSO final in cells; serial dilution; 30 μM highest conc. 1/3 dilution, 10 doses, duplicates). The compounds were used at room temperature and 4 μL of pre-warmed media was added to all wells except column 2 and 23. The negative control was prepared by adding 1% DMSO in media. The positive control was prepared by adding the appropriate positive control compound in final concentration of 60 μM in media. The plate was prepared by adding 4 μL negative control to column 23, 4 μL positive control to column 2 and 4 μL cell suspension to all wells in the plate. The plate with cells was then incubated at 37° C. for 2 hours. The assay signal reagent is the Caspase-Glo solution described above, and 8 μL was added to all wells. The plates were then sealed and measured after 30 minutes.
The activity of a test compound was calculated as percent change in apoptosis induction as follows:
LC=median of the Low Control values
HC=Median of the High Control values
=30 μM of positive control
=100% apoptosis induction
% Effect (AC50)=100−((sample−LC)/(HC−LC))*100
% Control=(sample/HC)*100
% Control min=((sample−LC)/(HC−LC))*100

Structures are written as SMILES.

For orientation: Ki means a measure of affinity in units of concentration, obtained from inhibition or displacement. A high value points to a looser hold on the target. As usually defined, the AC50 is the midpoint of the concentration-response curve, whichever way the signal moves. A low value points to activity at low concentration.

Myeloid Cell Leukemia 1 (Mcl-1), sequence (Q07820 whole entry, the tested form may be a part): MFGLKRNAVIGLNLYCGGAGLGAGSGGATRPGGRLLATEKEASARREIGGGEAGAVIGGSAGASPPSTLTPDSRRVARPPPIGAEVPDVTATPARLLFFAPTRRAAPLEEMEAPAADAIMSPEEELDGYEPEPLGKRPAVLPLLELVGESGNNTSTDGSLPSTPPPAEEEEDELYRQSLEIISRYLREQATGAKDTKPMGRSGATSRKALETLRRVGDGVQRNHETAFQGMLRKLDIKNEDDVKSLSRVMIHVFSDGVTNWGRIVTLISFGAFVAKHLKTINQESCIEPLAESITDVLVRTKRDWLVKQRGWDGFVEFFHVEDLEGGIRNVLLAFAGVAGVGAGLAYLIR

`Cc1nn(C)c(C)c1-c1c(Cl)ccc2c3c(C(=O)O)n(c12)CCSCc1cc(n(C)n1)CSc1cc(c2ccccc2c1)OCCC3` (single isomer, unassigned) [Compound 13]: in test [1], the inhibition constant (Ki) was 0.392 nM. The same compound yielded a concentration at half-maximal activity (AC50) in test [2] (Homo sapiens, MOLP-8, 2 h) of 1340 nM. Regarding `Cc1nn(C)c(C)c1-c1c(Cl)ccc2c3c(C(=O)O)n(c12)CCCSCc1cc(n(C)n1)CSc1cc(c2ccccc2c1)OCCC3` [Compound 18], the half-maximal activity concentration (AC50) in test [2] is 3640 nM. With `COCCOCc1nn(C)c(C)c1-c1c(Cl)ccc2c3c(C(=O)O)n(c12)CCCSCc1cc(n(C)n1)CCc1cc(c2ccc(F)cc2c1)OCCC3` (single isomer, unassigned) [Compound 20], in test [1], the affinity corresponds to a Ki of 0.073 nM. The AC50 in test [2] stood at 173 nM. `Cc1nn(C)c(C)c1-c1c(Cl)ccc2c3c(C(=O)O)n(c12)CCSCc1cc(n(C)n1)CCc1cc(c2ccc(F)cc2c1)OCCC3` (single isomer, unassigned) [Compound 7]: in test [1], the Ki is 0.086 nM. In addition, in test [2], half-maximal activity (AC50) was put at 231 nM. In test [1], `Cn1cc(-c2c(Cl)ccc3c4c(C(=O)O)n(c23)CCCSCc2cc(n(C)n2)CCc2cc(c3ccc(F)cc3c2)OCCC4)cn1` [Compound 8] registered a Ki of 0.977 nM. Moreover, the AC50 in test [2] (Homo sapiens, MOLP-8, 2 h) was determined as 1340 nM. The like results for `Cc1nn(C)c(C)c1-c1c(Cl)ccc2c3c(C(=O)O)n(c12)CCCS(=O)(=O)Cc1cc(n(C)n1)CCc1cc(c2ccc(F)cc2c1)OCCC3` (single isomer, unassigned) [Compound 4] were, in that order, 0.251 nM and 7030 nM.

In test [1], `COCCOCc1nn(C)c(C)c1-c1c(Cl)ccc2c3c(C(=O)O)n(c12)CCCSCc1cc(n(C)n1)CCc1cc(c2ccc(F)cc2c1)OCCC3` (single isomer, unassigned) [Compound 21] had a Ki of 0.155 nM. The compound also had a concentration at half-maximal activity (AC50) in test [2] of 1010 nM.

`Cc1c(-c2c(Cl)ccc3c4c(C(=O)O)n(c23)CCCSCc2cc(n(C)n2)CCc2cc(c3ccc(F)cc3c2)OCCC4)c(CO)nn1C` (single isomer, unassigned) [Compound 17]: in test [1], the affinity corresponds to a Ki of 0.08 nM. In test [2], the AC50 was 1830 nM. `Cc1nn(C)c(C)c1-c1c(Cl)ccc2c3c(C(=O)O)n(c12)CCCSCc1cc(n(C)n1)CSc1cc(c2ccccc2c1)OCCC3` [Compound 19] displayed an AC50 in test [2] of 740 nM. This counts as sub-micromolar. Consider `Cc1nn(C)c(C)c1-c1c(Cl)ccc2c3c(C(=O)O)n(c12)CCSCc1cc(n(C)n1)CCc1cc(c2ccc(F)cc2c1)OCCC3` (single isomer, unassigned) [Compound 6], for which the inhibition constant Ki in test [1] amounted to 0.056 nM. In test [2] (Homo sapiens, MOLP-8, 2 h), this compound returned an AC50 of 237 nM. Turning to `COCCn1nc(C)c(-c2c(Cl)ccc3c4c(C(=O)O)n(c23)CCCSCc2cc(n(C)n2)CCc2cc(c3ccc(F)cc3c2)OCCC4)c1C` (single isomer, unassigned) [Compound 10], the affinity in test [1], expressed as Ki, was 0.093 nM. Besides, the concentration at half-maximal activity (AC50) in test [2] stood at 160 nM. For `Cc1nn(C)c(C)c1-c1c(Cl)ccc2c3c(C(=O)O)n(c12)CCCSCc1cc(n(C)n1)CCc1cc(c2ccc(F)cc2c1)OCCC3` [Compound 1], the Ki in test [1] amounted to 0.126 nM. Moreover, the half-maximal activity concentration (AC50) in test [2] (Homo sapiens, MOLP-8, 2 h) is 90.5 nM. The compound `Cc1nn(C)c(C)c1-c1c(Cl)ccc2c3c(C(=O)O)n(c12)CCCSCc1cc(n(C)n1)CCc1cc(c2ccc(F)cc2c1)OCCC3` (single isomer, unassigned) [Compound 3] had a Ki in test [1] of 0.133 nM. Half-maximal activity in test [2] (AC50) was put at 207 nM.

`Cc1nn(C)c(C)c1-c1c(Cl)ccc2c3c(C(=O)O)n(c12)CCCSCc1cc(n(C)n1)CCc1cc(c2ccc(F)cc2c1)OCCC3` (single isomer, unassigned) [Compound 2] had a Ki in test [1] of 0.084 nM. This compound also showed an AC50 in test [2] (Homo sapiens, MOLP-8, 2 h) of 130 nM. The compound `Cc1nn(C)c(C)c1-c1c(Cl)ccc2c3c(C(=O)O)n(c12)CCCS(=O)(=O)Cc1cc(n(C)n1)CCc1cc(c2ccc(F)cc2c1)OCCC3` (single isomer, unassigned) [Compound 5] showed a Ki in test [1] of 0.276 nM. In test [2], this compound yielded a half-maximal activity concentration (AC50) of 7270 nM.

In test [1], `Cc1nn(C)c(C)c1-c1c(Cl)ccc2c3c(C(=O)O)n(c12)CCSCc1cc(n(C)n1)CSc1cc(c2ccccc2c1)OCCC3` (single isomer, unassigned) [Compound 14] had a Ki of 0.423 nM. The compound also showed an AC50 in test [2] of 1540 nM. For `Cn1nc2cc1CCc1cc(c3ccc(F)cc3c1)OCCCc1c(C(=O)O)n(c3c(-c4cncnc4)c(Cl)ccc13)CCC[S+]([O-])C2` (stereo not drawn) [Compound 15], in test [1], the inhibition constant Ki was 0.426 nM. Turning to `Cc1c(-c2c(Cl)ccc3c4c(C(=O)O)n(c23)CCCSCc2cc(n(C)n2)CCc2cc(c3ccc(F)cc3c2)OCCC4)c(CO)nn1C` (single isomer, unassigned) [Compound 16], the affinity in test [1], expressed as Ki, was 0.056 nM. The compound also had an AC50 in test [2] of 414 nM.

On to `Cc1nn(C)c(C)c1-c1c(Cl)ccc2c3c(C(=O)O)n(c12)CCSCc1cc(n(C)n1)CCc1cc(c2ccccc2c1)OCCC3` (single isomer, unassigned) [Compound 11], for which the inhibition constant (Ki) in test [1] was determined as 0.307 nM. In test [2] (Homo sapiens, MOLP-8, 2 h), the activity was half-maximal at 1460 nM (AC50). In test [1], `Cc1nn(C)c(C)c1-c1c(Cl)ccc2c3c(C(=O)O)n(c12)CCSCc1cc(n(C)n1)CCc1cc(c2ccccc2c1)OCCC3` (single isomer, unassigned) [Compound 12] came in with a Ki of 0.396 nM. The compound further displayed an AC50 in test [2] of 1350 nM. On to `COCCn1nc(C)c(-c2c(Cl)ccc3c4c(C(=O)O)n(c23)CCCSCc2cc(n(C)n2)CCc2cc(c3ccc(F)cc3c2)OCCC4)c1C` (single isomer, unassigned) [Compound 9], for which, in test [1], the inhibition constant Ki stood at 0.139 nM. Also, the AC50 in test [2] (Homo sapiens, MOLP-8, 2 h) came to 232 nM.
